Assay results taken from US20150105252A1, “SUBSTITUTED PYRAZOLES AS HERBICIDES” (E I DU PONT DE NEMOURS AND COMPANY, priority 2013, published 2015).

What was measured:
barnyardgrass = assay: Test A postemergence; format: in vivo, Echinochloa crus-galli
Outline: (§1)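 Seeds were sown in a loam soil–sand blend and given a directed soil spray preemergence; postemergence plants at 2–10 cm, one- to two-leaf stage, were sprayed with compound in non-phytotoxic solvent with surfactant. After about 10 days in a greenhouse, injury was visually rated against untreated controls (0 = no effect, 100 = complete control).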

blackgrass = assay: Test C preemergence; format: in vivo, Alopecurus myosuroides; conditions: for Plant response rating (scale of 0 to 100), Blackgrass: Preemergence, 250 g ai/ha; for Blackgrass plant response rating / Plant response rating, Blackgrass: preemergence; for Plant response rating, Blackgrass: scale 0 to 100, 0 = no effect, 100 = complete control
Text: (§2) Seeds of plant species selected from blackgrass (Alopecurus myosuroides), ryegrass, Italian (Italian ryegrass, Lolium multiflorum), wheat (winter wheat, Triticum aestivum), galium (catchweed bedstraw, Galium aparine), corn (Zea mays), crabgrass, large (large crabgrass, Digitaria sanguinalis), foxtail, giant (giant foxtail, Setaria faberii), johnsongrass (Sorghum halepense), lambsquarters (Chenopodium album), morningglory (Ipomoea coccinea), nutsedge, yellow (yellow nutsedge, Cyperus esculentus), pigweed (redroot pigweed, Amaranthus retroflexus), ragweed (common ragweed, Ambrosia elation), soybean (Glycine max), barnyardgrass (Echinochloa crus-galli), oilseed rape (Brassica napus), waterhemp (common waterhemp, Amaranthus rudis), oat, wild (wild oat, Avena fatua), kochia (Kochia scoparia), Surinam grass (Brachiaria decumbens), foxtail, green (green foxtail, Setaria viridis), goosegrass (Eleusine indica), bromegrass, downy (downy bromegrass, Bromus tectorum), nightshade (eastern black nightshade, Solanum ptycanthum), cocklebur (common cocklebur, Xanthium strumarium), cupgrass, woolly (woolly cupgrass, Eriochloa villosa), bermudagrass (Cynodon dactylon), sunflower, (common oilseed sunflower, Helianthus annuus), Russian thistle (Salsola kali), and velvetleaf (Abutilon theophrasti) were planted into a blend of loam soil and sand and treated preemergence with test chemicals formulated in a non-phytotoxic solvent mixture which included a surfactant.
(§3) At the same time, plants selected from these crop and weed species and also chickweed (common chickweed, Stellaria media), canarygrass (littleseed canarygrass, Phalaris minor), and deadnettle (henbit deadnettle, Lamium amplexicaule), were planted in pots containing Redi-Earth® planting medium (Scotts Company, 14111 Scottslawn Road, Marysville, Ohio 43041) comprising spaghnum peat moss, vermiculite, wetting agent and starter nutrients and treated with postemergence applications of test chemicals formulated in the same manner. Plants ranged in height from 2 to 18 cm (1- to 4-leaf stage) for postemergence treatments. Treated plants and controls were maintained in a greenhouse for 13 to 15 days, after which time all species were compared to controls and visually evaluated. Plant response ratings, summarized in Table C, are based on a scale of 0 to 100 where 0 is no effect and 100 is complete control. A dash (-) response means no test result.

morningglory [1] = assay: Test C preemergence; format: in vivo, Ipomoea coccinea; conditions: for Plant response rating (scale of 0 to 100), Morningglory: Preemergence, 250 g ai/ha; for Morningglory plant response rating / Plant response rating, Morningglory: preemergence; for Plant response rating, Morningglory: scale 0 to 100, 0 = no effect, 100 = complete control
Text: as §2, §3

velvetleaf = assay: Test A postemergence; format: in vivo, Abutilon theophrasti
Outline: as §1

pigweed = assay: Test A postemergence; format: in vivo, Amaranthus retroflexus
Outline: as §1

ragweed = assay: Test C preemergence; format: in vivo, Ambrosia elation; conditions: for Plant response rating (scale of 0 to 100), Ragweed: Preemergence, 250 g ai/ha; for Ragweed plant response rating / Plant response rating, Ragweed: preemergence; for Plant response rating, Ragweed: scale 0 to 100, 0 = no effect, 100 = complete control
Outline: (§4)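 Scores of 0 (no effect) to 100 (complete control) were assigned by eye after 13–15 days, comparing treated pots with controls. Soil-applied (preemergence) treatments went onto seeds in loam and sand; foliar (postemergence) treatments onto 1- to 4-leaf plants in peat medium.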

morningglory [2] = assay: Test A preemergence; format: in vivo, Ipomoea spp.; conditions: preemergence
Outline: as §1

nutsedge, yellow = assay: Test C preemergence; format: in vivo, Cyperus esculentus; conditions: for Plant response rating (scale of 0 to 100), Nutsedge, Yellow: Preemergence, 250 g ai/ha; for Nutsedge, Yellow plant response rating / Plant response rating, Nutsedge, Yellow: preemergence; for Plant response rating, Nutsedge, Yellow: scale 0 to 100, 0 = no effect, 100 = complete control
Outline: as §4

ducksalad = assay: Test B flood; format: in vivo, Heteranthera limosa; conditions: 250 g ai/ha, visual rating on 0 to 100 scale (0 no effect, 100 complete control), 13 to 15 days
Outline: (§5)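 Visual ratings (0 = no effect, 100 = complete control) versus untreated controls were taken 13–15 days after treatment of greenhouse plants. Treatment was added to paddy water held at 3 cm depth on 2-leaf-stage seedlings.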

corn = assay: Test A postemergence; format: in vivo, Zea mays
Outline: as §1

rice = assay: Test B flood; format: in vivo, Oryza sativa; conditions: 250 g ai/ha, visual rating on 0 to 100 scale (0 no effect, 100 complete control), 13 to 15 days
Outline: as §5

sedge, umbrella = assay: Test B flood; format: in vivo, Cyperus difformis; conditions: 250 g ai/ha, visual rating on 0 to 100 scale (0 no effect, 100 complete control), 13 to 15 days
Outline: as §5

crabgrass, large [3] = assay: Test A postemergence; format: in vivo, Digitaria sanguinalis
Outline: as §1

wheat = assay: Test A preemergence; format: in vivo, Triticum aestivum; conditions: preemergence
Outline: as §1

crabgrass, large [4] = assay: Test A preemergence; format: in vivo, Digitaria sanguinalis; conditions: preemergence
Outline: as §1

[5] = Postemergence, 500 g ai/ha, visual rating after approx. 10 days, 0 to 100 scale (0 no effect, 100 complete control)
[6] = postemergence, 125 g ai/ha, about 10 days, visual rating on 0 to 100 scale (0 no effect, 100 complete control)
[7] = 31 g ai/ha, visual rating, scale 0 to 100 (0 no effect, 100 complete control), 13 to 15 days
[8] = 125 g ai/ha, scale 0 to 100, 0 is no effect, 100 is complete control
[9] = 125 g ai/ha, visual injury, 0 to 100 scale, approx. 10 days
[10] = 500 g ai/ha, visual injury after approx. 10 days, 0 to 100 scale (0 no effect, 100 complete control)
[11] = Postemergence, 500 g ai/ha, 0 to 100 scale (0 no effect, 100 complete control)
[12] = 62 g ai/ha, scale 0 to 100 (0 no effect, 100 complete control), 13 to 15 days

Compound	Barnyardgrass plant response rating (barnyardgrass; [5])	Barnyardgrass plant response rating (barnyardgrass; [6])	Plant response rating (scale of 0 to 100), Blackgrass (blackgrass)	Blackgrass plant response rating (blackgrass; [7])	Plant response rating, Blackgrass (blackgrass; 62 g ai/ha, 13 to 15 days)	Blackgrass plant response rating (blackgrass; [8])	Plant response rating (scale of 0 to 100), Morningglory (morningglory [1])	Morningglory plant response rating (morningglory [1]; [7])	Plant response rating, Morningglory (morningglory [1]; 62 g ai/ha, 13 to 15 days)	Morningglory plant response rating (morningglory [1]; [8])	Velvetleaf plant response rating (velvetleaf; [5])	Pigweed plant response rating (pigweed; [6])	Plant response rating (scale of 0 to 100), Ragweed (ragweed)	Ragweed plant response rating (ragweed; [7])	Plant response rating (scale of 0 to 100), Nutsedge, Yellow (nutsedge, yellow)	Nutsedge, Yellow plant response rating (nutsedge, yellow; [7])	Plant response rating, Ducksalad (ducksalad)	Corn plant response rating (corn; [6])	Plant response rating, Rice (rice)	Plant response rating, Sedge, Umbrella (sedge, umbrella)	further results
CCCc1cc(C(=O)NCC)nn1Cc1ccnc(C(F)(F)F)c1 [Compound 95]	100	90	100	100	100	100	100	100	100	100	100	100	100	80	90	50	85	80	20	75	Velvetleaf plant response rating (velvetleaf; [6]): 90; Pigweed plant response rating (pigweed; [5]): 100; Plant response rating, Ragweed (ragweed; 62 g ai/ha, 13 to 15 days): 95; Ragweed plant response rating (ragweed; [8]): 100; Morningglory plant response rating (morningglory [2]; [9]): 100; Morningglory plant response rating (morningglory [2]; [10]): 100; Plant response rating, Nutsedge, Yellow (nutsedge, yellow; 62 g ai/ha, 13 to 15 days): 80; Nutsedge, Yellow plant response rating (nutsedge, yellow; [8]): 85; Corn plant response rating (corn; [5]): 100; Crabgrass, Large plant response rating (crabgrass, large [3]; [5]): 100; Crabgrass, Large plant response rating (crabgrass, large [3]; [6]): 90; Wheat plant response rating (wheat; [9]): 70; Wheat plant response rating (wheat; [10]): 100; Crabgrass, Large plant response rating (crabgrass, large [4]; [9]): 100; Crabgrass, Large plant response rating (crabgrass, large [4]; [10]): 100
CCc1cc(C(=O)NC2CC2)nn1Cc1ccnc(OC(F)F)c1 [Compound 98]	90	90	100	70	100	100	100	45	95	100	100	100	100	95	95	30	70	80	0	80	Velvetleaf plant response rating (velvetleaf; [6]): 70; Pigweed plant response rating (pigweed; [5]): 100; Plant response rating, Ragweed (ragweed; 62 g ai/ha, 13 to 15 days): 100; Ragweed plant response rating (ragweed; [8]): 100; Morningglory plant response rating (morningglory [2]; [9]): 100; Morningglory plant response rating (morningglory [2]; [10]): 100; Plant response rating, Nutsedge, Yellow (nutsedge, yellow; 62 g ai/ha, 13 to 15 days): 75; Corn plant response rating (corn; [5]): 90; Crabgrass, Large plant response rating (crabgrass, large [3]; [5]): 90; Crabgrass, Large plant response rating (crabgrass, large [3]; [6]): 90; Wheat plant response rating (wheat; [9]): 30; Wheat plant response rating (wheat; [10]): 90; Crabgrass, Large plant response rating (crabgrass, large [4]; [9]): 100; Crabgrass, Large plant response rating (crabgrass, large [4]; [10]): 100
CCOc1cc(C(=O)NCC(F)(F)F)nn1Cc1ccnc(C(F)(F)F)c1 [Compound 104]	90	90	90	85	90	90	100	100	100	100	100	100	100	98	98	70	0	90	40	0	Velvetleaf plant response rating (velvetleaf; [6]): 90; Pigweed plant response rating (pigweed; [5]): 100; Plant response rating, Ragweed (ragweed; 62 g ai/ha, 13 to 15 days): 100; Ragweed plant response rating (ragweed; [8]): 100; Morningglory plant response rating (morningglory [2]; [9]): 100; Morningglory plant response rating (morningglory [2]; [10]): 100; Plant response rating, Nutsedge, Yellow (nutsedge, yellow; 62 g ai/ha, 13 to 15 days): 95; Nutsedge, Yellow plant response rating (nutsedge, yellow; [8]): 98; Corn plant response rating (corn; [5]): 100; Crabgrass, Large plant response rating (crabgrass, large [3]; [5]): 90; Crabgrass, Large plant response rating (crabgrass, large [3]; [6]): 90; Wheat plant response rating (wheat; [9]): 90; Wheat plant response rating (wheat; [10]): 100; Crabgrass, Large plant response rating (crabgrass, large [4]; [9]): 100; Crabgrass, Large plant response rating (crabgrass, large [4]; [10]): 100
CCOc1cc(C(=O)NC2CC2)nn1Cc1ccnc(OC(F)F)c1 [Compound 133]	–	90	95	85	–	–	100	75	–	–	–	100	100	10	85	20	90	60	20	90	Barnyardgrass plant response rating (barnyardgrass; [11]): 100; Blackgrass plant response rating (blackgrass; [12]): 90; Plant response rating, Blackgrass (blackgrass; 125 g ai/ha, 13 to 15 days): 90; Morningglory plant response rating (morningglory [1]; [12]): 100; Plant response rating, Morningglory (morningglory [1]; 125 g ai/ha, 13 to 15 days): 100; Pigweed plant response rating (pigweed; [11]): 100; Ragweed plant response rating (ragweed; [12]): 60; Plant response rating, Ragweed (ragweed; 125 g ai/ha, 13 to 15 days): 100; Nutsedge, Yellow plant response rating (nutsedge, yellow; [12]): 25; Plant response rating, Nutsedge, Yellow (nutsedge, yellow; 125 g ai/ha, 13 to 15 days): 70; Corn plant response rating (corn; [11]): 80
